The subject of assay [1] is cerebral ischemia/reperfusion injury in mice. In words: focal cerebral ischemia reperfusion injury model in mice (suture method), TTC infarction area. It counts as in vivo. The protocol: Focal cerebral ischemia reperfusion injury model is made in mice by using suture method, being ischemia for 2 h, then reperfusing for 24 h, and it proves that piperphentonamine hydrochloride has protective effect on ischemia-reperfusion cerebral injury.
Mouse is anesthetized by injecting 10% chloral hydrate (350 mg/kg) in intraperitoneal, being intravenously administered 1 mg/kg, 5 mg/kg piperphentonamine hydrochloride or 20 u/kg coenzyme A, (COA), making the cerebral artery ischemia like as the method of example 6. Pulling out nylon thread from the internal carotid artery after the operation in 2 hours, until the end of the nylon thread is at bifurcation of the common carotid artery. Reperfusing for 24 hours. Except for not inserting a thread, the rest of steps for the false operation group are same as the above-mentioned. After reperfusion for 24 h, decapitating and taking the brain of survived mice, rapidly putting in −20° C. freezer for 5 min, then removing, quickly cutting coronal slices of 2.0 mm thickness from forward to back on the operating table, putting the slices in phosphate buffer solution with 1% TTC immediately, incubating for 30 min in avoiding light at room temperature. Flip brain slices to make them touch staining solution uniformly every 10 minute, and scanning and observing the dyeing results.
The local cerebral ischemia model of mice was established by using thread bolt method, to validate that piperphentonamine acetate has protective effect on experimental cerebral ischemia animal.

Assay [2] deals with cultured cerebral neurons. In words: NMDA induces neuron injury in primary cultured neurons. It counts as cell-based, rat. To be noted: drug 50 mmol/L; NMDA 50 mmol/L, 12 h.
The subject of assay [3] is cerebral edema of mice caused by closed cerebral trauma. Briefly: closed cerebral trauma model of mice, brain water content. The note with it: method as example 2. It counts as in vivo, Kunming mice. The protocol: There were 10 mice in each group.
The closed cerebral trauma model of mice being established after fasting for 16 hours, administering intravenously to each group, striping and taking the brain of mouse after 24 hours, weighing the wet weight, and drying at 70° C. for 24 hours, then weighing the dry weight, and calculating brainwater content; the brain water content which is higher than normal values indicates the cerebral edema.
The grouping method, administer method and model preparation were referred to example 2.

The subject of assay [4] is cerebral hemorrhage in rats induced by collagenase. Briefly: ICH model induced by collagenase: brain water content (BWC). It counts as in vivo, Wistar rats. To be noted: 0.5 mg/kg iv 30 min before ICH. The protocol:
(§1) Animals are randomly divided into five groups: sham operation 24 h group; cerebral hemorrhage (Intracerebral Haemorrhage, ICH)+physiological saline group (model); ICH+piperphentonamine hydrochloride (JBTA, 2 mg/kg) group, called as high dose group (h); ICH+piperphentonamine hydrochloride (JBTA, 0.5 mg/kg) group, called as low dose group (1); ICH+nimodipine (Nim, 0.5 mg/kg) group. The last four groups are divided into 4 h, 8 h, 12 h, 24 h as four time subgroups respectively. Physiological saline solution, piperphentonamine hydrochloride and nimodipine are intravenously injected from rat tail before the ICH model is established for 30 minutes, once a day. Injecting slowly, the total amount of drug liquid is controlled in 1 ml/200 g body weight: physiological saline solution also being administered in 1 ml/200 g body weight. Each group has 7 Wistar rats.
Observing the influence of piperphentonamine hydrochloride on the brain water content of intracerebral hemorrhage in rats in 4 h, 8 h, 12 h, 24 h, the animals of the different groups is anesthetized by chloral hydrate at predetermined time point, and decollating and taking the brain rapidly, putting the brain tissue on a filter paper wetted by saline solution to prevent water evaporating. Removing the leptomeninges and blood, cutting and taking the front half portion of brain tissue centered by the hole for the insertion needle, weighing precisely (accurate to 0.1 mg). It is controlled in 5 min to take the brain to finish weigh. Then putting in 95° C. constant temperature oven for 24 h, weighing the dry weight. The brain water content is calculated according to Blliot formula: BWC=(wet weight−dry weight)/wet weight×100%.
(§2) Divide the animals randomly into five groups: sham operation (sham) 24 h group; ICH+normal saline group (model); ICH+piperphentonamine maleate (4 mg/kg) group, namely high dose group (h); ICH+piperphentonamine maleate (2 mg/kg) group, namely low dose group (1); ICH+nimodipine (0.5 mg/kg) group. The last four groups were divided into four time subgroup of 4 h, 8 h, 12 h and 24 h. Physiological solution, piperphentonamine maleate and nimodipine were injected intravenous from rat tail vein 30 minutes before the ICH model made, once a day. Inject slowly, the total amount of drug liquid was controlled in 1 ml/200 g body weight: normal saline was also administered in 1 ml/200 g body weight. Each group has seven Wistar rats.

Assay [5] has the same test system. Briefly: cerebral hemorrhage (ICH) model induced by collagenase: neurology score. It counts as in vivo, Wistar rats. To be noted: 0.5 mg/kg iv 30 min before ICH. The protocol:
as §1
The specific steps are as following: after the experimental rats are anesthetized by injecting chloral hydrate (350 mg/kg) in intraperitoneal, and being supinely immobilized in a stereotaxic instrument, and make the rat anterior fontanelle and posterior fontanelle in the same plane according to localization method reported by BAO Xinmin, etc. Being locally disinfected by iodine, incising in the midmost of scalp, scissoring the periosteum, exposing the anterior fontanelle, drilling a 1 mm diameter hole with thickness close to duramater in 3 mm left to the midline by number five needle. Inserting needle along the hole by the micro syringe fixed on a stereotaxic, the depth of needle insertion is 5.8 mm (i.e., the caudate nucleus position), slowly injecting collagenase VI 0.5 U. Injection time is 3 min, keeping for 5 min after injection, then pull the needle out, suturing the skin, and putting the rat into cage and feed. Inserting the needle and not injecting drugs in sham operation group, the remaining operations is the same as the above.
After animals wake up, scoring nerve function defect of each group immediately according to the grading classification standards of nerve defect reported by Bedersog (litter improved).
Choosing the animals with the score of 3 and more into the experiment, the animals are bred in different cages, eat and drink normally. Temperature is controlled in 20 to 25° C., score in 4 h, 8 h, 12 h, 24 h after establishment of the model.
as §2

Assay [6] has the same test system. Briefly: ICH model induced by collagenase: NO in brain tissue by nitrate reductase method. It counts as in vivo, Wistar rats. The note with it: 0.5 mg/kg; ICH rat brain tissue. An excerpt: Rats in each group were anesthetized by chloral hydrate, decollated rapidly and the brain take were taken out. The brain tissue around the hole was cut and procured, weighed precisely, and made into a 10% tissue homogenate using a glass homogenizer in an ice bath environment with physiological saline as homogenized medium, the supernatant of which was taken to be determined the content of NO by nitrate reductase method.

Assay [7] has as its system infectious cerebral edema of rats (pertussis bacteria liquid). Briefly: infectious cerebral edema: brain water content and Evans blue content, combination with nimodipine. It counts as in vivo, SD rats. To be noted: JBTA pretreatment 0.5 mg/kg iv, 2 times. The protocol:
The model of infectious cerebral edema is same with example 4. It is Studied that piperphentonamine hydrochloride and a blocker for specificity L-type calcium ion channel nimodipine influence on the brain water content and Evans blue (EB) content of infectious cerebral edema, of which the purpose is to provide experimental and theoretical basis for clinical treatment.
Each group is further divided into three time group such as 30 min, 4 h and 24 h group.
Injecting intravenously nimodipine after injecting bacteria for 5 min (Nim group, body weight 0.25 mg/kg), 24 h nimodipine treatment group is repeatedly injected the same dose once per 8 h; nimodipine treatment group pretreated by piperphentonamine hydrochloride is intravenously infused piperphentonamine hydrochloride (0.5 mg/kg, 2 times in total) before experimenting for 48 h and 24 h, then treated with nimodipine after the pretreatment. The operation of physiological saline group being same as bacteria liquid group, is injected the same volume of physiological saline at the same time. 2% Evans blue (EB, 0.2 mL/100 g body weight) is injected from the vein of the sublingua after injecting bacteria or saline in 10 min. Each group of animal is executed by decollating after observing to the specified time, rapidly removed the brain, and remove the leptomeninges and coagulation block of the cortical surface, taking full-thickness brain tissue of the back ⅓ of left hemisphere of the brain (about 0.1˜0.2 g, including gray matter and white matter) as specimens, the water content in brain tissue and the Evans blue content are determined by the dry wet method, and brain tissue is examined by electron microscope.

The subject of assay [8] is cerebral hemorrhage in rats induced by collagenase. In words: ICH model induced by collagenase: NE in brain tissue by ELISA. It counts as in vivo, Wistar rats. The note with it: 0.5 mg/kg; ICH rat brain tissue homogenate. The source says:
Rats in each group were anesthetized by chloral hydrate, decollated rapidly and the brains were taken out. The brain tissue around the hole was cut and procured, weighed precisely, and made into a 10% tissue homogenate using a glass homogenizer in an ice bath environment with physiological saline as homogenized medium, the supernatant of which was taken to be determined the NE activity using ELISA method.
(ELISA stands for enzyme-linked immunosorbent assay.)

Assay [9] has as its system infective brain edema of rats (pertussis bacteria liquid). In words: infective cerebral edema by pertussis bacteria liquid: brain water, sodium and potassium ion content. It counts as in vivo, SD rats. Further details: Na^+ / K^+: unit not given here. To be noted: pretreatment 0.5 mg/kg ip daily for 2 days; 4 h after bacterial liquid.
Assay [10] shares this test system. Briefly: infective cerebral edema: IL-1β, TNF-α (ELISA) and NO (Griess) in cerebral tissue. It counts as in vivo, SD rats. To be noted: pretreatment 0.5 mg/kg ip daily for 2 days; rat brain tissue, 4 h. The protocol:
Determine the content of IL-1β, TNF-α and NO by using ELISA and Griess method.
Model preparation was same as that of example 4. Piperphentonamine acetate group was intraperitoneally injected with 0.5 mg/kg daily for 2 days 48 h before the injection of pertussis bacterial liquid. Rats in each group were decollated after being injected with bacterial liquid or saline 4 h. ELISA method and Griess method were used to measure the content of IL-1β, TNF-α and NO in brain homogenate of infectious brain edema model of rats.

[11] abbreviates: 24 h, Nim 0.25 mg/kg iv once per 8 h.

This is an account of results in patent US8916607B2, “Use of piperphentonamine or salts thereof in manufacture of medicaments for treating brain diseases” (Guangzhou Municipal Zhongwei Biotechnology Limited Company, priority 2009, dated 2014).

Marks after values point to notes of the source that are not given here.

On to `Nc1ncnc2c1ncn2[C@@H]1O[C@H](COP(=O)(O)OP(=O)(O)OP(=O)(O)O)[C@@H](O)[C@H]1O` [ATP, reference compound], for which the “The percentage of infarction area occupied the entire coronal plane (%)” value (from here on “The percentage … (%)”) in assay [1] (5 mg/kg, method as example 7 (example 16)) was determined as 20.53 ± 4.82 %.
As for `CC(C)(COP(=O)(O)OP(=O)(O)OC[C@H]1O[C@@H](n2cnc3c(N)ncnc32)[C@H](O)[C@@H]1OP(=O)(O)O)[C@@H](O)C(=O)NCCC(=O)NCCS` [CoA, coenzyme A, reference compound], the “The percentage … (%)” value in [1] (20 U/kg iv, ischemia 2 h, reperfusion 24 h) was found to be 20.53 ± 4.82 %.
What is called mortality is the share of the test organisms that died. Turning to Ganglioside [GM, reference compound], in assay [2], the “morphological change of culture neuron (protection function)” value is “equal to the one of piperphentonamine hydrochloride 10 mmol/L” and the mortality was determined as 40%.
In the case of `CN(CCC(=O)/C=C/c1ccc(O)cc1)CCc1ccc2c(c1)OCO2.O=C(O)CC(O)(CC(=O)O)C(=O)O` [piperphentonamine citrate], the “brain water content (%)” value in assay [3] (2 mg/kg) is on record as 80.32 ± 7.72 %; in [3] (4 mg/kg) it was 78.84 ± 9.48 %; in assay [3] (8 mg/kg) it was 75.28 ± 6.48 %. The “The percentage … (%)” value in assay [1] (treated group (C), dose not given, model as example 7) is on record as 16.88 ± 2.48**^ΔΔ %.
`COCCOC(=O)C1=C(C)NC(C)=C(C(=O)OC(C)C)C1c1cccc([N+](=O)[O-])c1` (stereo not shown) [nimodipine, reference compound]: the “brain water content (%)” value is 79.31 ± 0.76 % in assay [4] (4 h), 79.95 ± 0.36^Δ** % in assay [4] (8 h), 81.35 ± 0.71^ΔΔ** % in assay [4] (12 h) and 82.89 ± 0.68^ΔΔ** % in [4] (24 h). The brain water content in [4] (4 h (example 12), in %) is reported as 62.20 ± 0.59; in assay [4] (8 h (example 12)), 62.70 ±0.25^Δ**; in assay [4] (12 h (example 12)), 63.8 ± 0.56^ΔΔ**; in assay [4] (24 h (example 12)), 65.02 ± 0.54^ΔΔ**. The neurological score is reported as 4.5 ± 0.87 in assay [5] (4 h); 3.65 ± 0.8 in [5] (4 h (example 12)); 4.07 ± 1.14 in assay [5] (8 h); 3.25 ± 0.91 in assay [5] (8 h (example 12)); 2.57 ± 1.14 in [5] (12 h); 2.05 ± 0.91 in assay [5] (12 h (example 12)). The neurological score is on record as 1.94 ± 0.74 in [5] (24 h) and 1.55 ± 0.59**^Δ in assay [5] (24 h (example 12)). For the same compound, in [6], the NO is reported as 2.40 ± 0.05^Δ μmol/g pro. Moreover, the “BWC(%)” value in assay [7] (30 min, Nim 0.25 mg/kg iv) amounted to 77.26 ± 0.34 %; in assay [7] (4 h, Nim 0.25 mg/kg iv), 77.15 ± 0.66 %; in [7] (setting [11]) it was 76.98 ± 0.50 %. The EB in assay [7] (30 min, Nim 0.25 mg/kg iv) was determined as 2.0 ± 0.18 μg/g ww; in assay [7] (4 h, Nim 0.25 mg/kg iv), 2.65 ± 0.44 μg/g ww; in [7] (setting [11]), 2.00 ± 0.6 μg/g ww. The NE in assay [8] is on record as 1.88 ± 0.035^a ng/ml.
With `CC1=NN(c2ccccc2)C(=O)C1` [Edaravone Injection, edaravone, reference compound], the “The percentage … (%)” value in [1] (3 mg/kg, method as example 7 (example 16)) was found to be 18.43 ± 3.56 %.
Turning to `CC(=O)O.CN(CCC(=O)/C=C/c1ccc(O)cc1)CCc1ccc2c(c1)OCO2` [piperphentonamine acetate], in [1] (4 mg/kg, thread bolt method (example 15)), the “The percentage … (%)” value was 18.12 ± 2.64^ΔΔ %. For the same compound, in assay [9], the “K^+” value is 396.6 ± 39.9, the “Na^+” value amounted to 164.7 ± 23.7 and the “brain water content (%)” value was 63.44 ± 0.4^3) %. In assay [10], the IL-1β is 197.1 ± 27.1^2)3) pg/g, the NO is 53.3 ± 3.71^2)3) nmol/g and the TNF-α is recorded as 309.3 ± 83.5^2)3) pg/g.
